{"source": "patent US10266567B2", "about": "“Peptides and compositions comprising same and uses thereof in the treatment of diseases” (Ariel-University Research and Development Company Ltd., priority 2015, dated 2019)", "key": {"[1]": {"test_system": "B16-F10 melanoma cells", "assay": "Metastatic melanoma mice model using B16F10 cells", "format": "in vivo, C57BL/6 mice", "method": "Metastatic melanoma mice model using B16F10 cells. Murine B16F10 cells grown in RPMI were harvested by trypsinization and washed with PBS. The cells were counted and resuspended in PBS to final concentrations of 1.0×10^5 cells/mL and were maintained at 4° C. for immediate i.v inoculation into the tail vein of C57BL6 male mice (Harlan Labs). Next day, following tumor cell inoculation, these animals received i.p. injection of ALOS peptide or saline. Injections were performed daily throughout the working week. Mice were weighed daily on the day of injection.\nFor analysis of the peptides' effect on melanoma nodule formation all mice were sacrificed 18 days following the i.v. injection. Organs were dissected analyzed visually. The lungs of sacrificed mice were rinsed in saline and fixed with Bouin's solution. The total number of visible nodules on the lung surface per animal was counted.\nFor analysis of the peptides' effect on survival of melanoma cell-inoculated mice, animals were observed several times a week for signs of lethargy such as weight loss, hunched position and epilepsy. In order to lessen suffering, when these symptoms occurred, mice were euthanized with cervical dislocation after CO2 anesthesia. Survival time was recorded and long-term survivors were defined as animals surviving longer than 3 times the median survival of non-treated animals.\nALOS3 and ALOS4 block melanoma growth in metastatic melanoma mice model: An important clinical problem of malignant tumors is that lethality is mostly attributed to metastasis of the primary neoplastic cells. Complete eradication of the primary malignant cells is usually limited, due to location of the tumor, spread to distant organs and severe side effects caused by treatment. The effects of ALOS 3 and 4 on artificial metastasis, using highly metastatic melanoma B16-F10 cells was studied. 5×10^4 cells of B16-F10/0.2 ml/mouse were injected into the tail vein of 8 weeks old C57BL/6 mice. […] 18 days later the mice were sacrificed, lungs were dissected and the total number of visible nodules on the lung surface was counted. […]"}, "[2]": {"assay": "Elevated Plus Maze (EPM) test in metastatic melanoma mice", "format": "in vivo", "settings": "0.3 mg/kg chronic, vs control, p<0.01", "method": "The EPM apparatus comprises two closed (10 cm×45 cm×40 cm) and two open (10 cm×45 cm) arms that extend from a common central platform (10 cm×10 cm). The black apparatus is elevated to a height of 60 cm above floor level. The tests were conducted at the same time of the day (10.00-12.00 h) during the period of illumination in the mice's colony room. For habituation, all animals were placed in the experimental room one hour prior to the test. Each animal was placed at the center of the maze, facing one of the closed arms. Each mouse spent a five minute session in the EPM, during which the number of entries into open and closed arms as well as time spent in the open and closed arms were video scored."}}, "note": "“Also recorded” adds a separate entry of the source. Bridge positions count the residues as written; N and C are the ends. Ends that are not written are not given here."}
{"sequence": "CAPSPSRLC (disulfide 1-9 (inferred)) [ALOS3]", "values": [{"measurement": "Survival of metastatic melanoma mice", "setting": "[1]; 0.3 mg/kg daily i.p., 5×10^3 B16-F10 cells i.v., vs saline", "result": "significantly increased the survival; also recorded: significantly delayed animals' death"}, {"measurement": "Number of metastatic melanoma sites (visible nodules) in the lungs", "setting": "[1]; 0.3 mg/kg daily i.p., 5×10^4 B16-F10 cells i.v., day 18", "result": "significantly blocked the number of metastatic melanoma sites in the lungs"}, {"measurement": "Animals' weight during treatment course", "setting": "[1]; metastatic melanoma mice, ALOS vs saline", "result": "did not show weight loss"}, {"measurement": "EPM performance (ratio of time spent in open arms to total time), anxiolytic effect", "setting": "[2]", "result": "significantly increased the performance of the mice; also recorded: exerted anxiolytic effect"}]}
